From PMC4917254 (PLoS ONE, 2016)
Several values for one entry are separate records, joined by “and”; a condition that tells them apart may be missing. Equal values may be shown once. Where a name gives a salt, the structure may show the parent alone. Read-outs that look alike come from different tables or passages of the source.

What was measured:
α1β2γ2L GABAARs = biological target: T1, α1β2γ2L GABAARs (Homo sapiens, UniProt P14867+P18507+P47870); test: Two-electrode voltage clamp, recombinant α1β2γ2L GABAARs in Xenopus oocytes; assay type: cell-based; settings: for nH ± SEM: Hill slope of GABA curve, α1β2γ2L
T1 construct: expressed in transfected cells; host or cells: Xenopus laevis oocytes injected with mRNA (1:1:3)
Experimental: (§1) The expression and functional characterisation of recombinant GABAARs in Xenopus oocytes were performed as previously described. The subunit mRNA ratios for the expression of αβγ receptors were adjusted according to the β subunit isoform in that when β2-containing receptors were expressed, a 1:1:3 ratio was used, whereas when β1- or β3-containing receptors were expressed, a 10:1:10 ratio was used to minimise the expression of homomeric β1/3 homomeric receptors. To express α4β2δ receptors, a 5:1:5 ratio was used, and the pharmacological characteristics of this receptor were as described in Hartiadi et al. (2016). The injection ratio used for the expression of α1β2 and β2γ2L receptors were 1:1 and 1:3 respectively. Approximately 2 to 10 ng of mRNA mixture was injected into each oocyte. Injected oocytes were stored in ND96 storage solution supplemented with 50 μg/mL gentamycin and tetracycline at 18°C.
(§2) Two-electrode voltage clamp recordings were performed on oocytes 2–5 days post-injection at room temperature (20–25°C) using a GeneClamp 500B amplifier (ADInstruments, Sydney, NSW, Australia) or a Warner OC-725C Oocyte Clamp (Warner Instrument Corp, Hamden, CT, USA). All experiments were conducted at a holding potential of –60 mV, and data were acquired with a PowerLab 2/25, and LabChart (version 5.0.2) software (ADInstruments, Sydney, NSW, Australia). The recording microelectrodes (0.2–1.1 MΩ) were generated from capillary glass (Harvard Apparatus, Holliston, MA, USA) using a single-stage glass microelectrode puller (Narishige, Tokyo, Japan), and were filled with 3 M KCl solution.
(§3) Perfusates containing these chemicals were made up fresh before each application. […] All experiments were performed using at least two different batches of oocytes.
(§4) Prism (version 5.04; GraphPad Software, La Jolla, CA, USA) was used for data analysis. All data are presented as mean ± standard error of the means (SEM).
(§5) Alternatively, the modulatory effect was expressed as the fold of potentiation, as shown in Eq 3.

α1β3N265Mγ2L GABAARs = biological target: T2, α1β3N265Mγ2L GABAARs (Homo sapiens, UniProt P14867+P18507+P28472, N290M); test: Two-electrode voltage clamp, mutant α1β3N265Mγ2L GABAARs in Xenopus oocytes; assay type: cell-based
T2 construct: expressed in transfected cells; host or cells: Xenopus laevis oocytes injected with mRNA (10:1:10)
Source text: (§6) Human complementary DNAs (cDNAs) of GABAAR subunits used in this study and their corresponding subcloned vectors include: α1, β1, β2 and γ2L in pCDM8; α2 and α3 in pCDNA3.1; α4 and δ in pCDNA1/Amp; α5 in pCDNA3; β3 in pGEMHE. […] Linearised plasmid DNAs were used as templates for the synthesis of messenger RNAs (mRNAs) using the mMessage mMachine T7 transcript kit from Ambion (Austin, TX, USA). Mutations were introduced to various GABAAR subunits of interest using the QuikChange II Site-Directed Mutagenesis Kit. For the α1M236W point mutation, forward primer 5′-[…]-3′ and reverse primer 5′-[…]-3′ were used. For the β2M286W point mutation, forward primer 5′-[…]-3′ and reverse primer 5′- […]-3′ were used. For the β3N265M point mutation, forward primer 5′- […]-3′ and reverse primer 5′-[…]-3′ were used.
as §1, §2, §3, §4, §5

α1β2M286Wγ2L GABAARs = biological target: T3, α1β2M286Wγ2L GABAARs (Homo sapiens, UniProt P14867+P18507+P47870, M310W); test: Two-electrode voltage clamp, mutant α1β2M286Wγ2L GABAARs in Xenopus oocytes; assay type: cell-based
T3 construct: expressed in transfected cells; host or cells: Xenopus laevis oocytes injected with mRNA
Source text: as §6, §1, §2, §3, §4, §5

α1M236Wβ2γ2L GABAARs = biological target: T4, α1M236Wβ2γ2L GABAARs (Homo sapiens, UniProt P14867+P18507+P47870, M263W); test: Two-electrode voltage clamp, mutant α1M236Wβ2γ2L GABAARs in Xenopus oocytes; assay type: cell-based; settings: for agonist effect, mutant vs wild-type: p > 0.05, n = 5
T4 construct: expressed in transfected cells; host or cells: Xenopus laevis oocytes injected with mRNA
Source text: as §6, §1, §2, §3, §4, §5

α1β3γ2L GABAARs = biological target: T5, α1β3γ2L GABAARs (Homo sapiens, UniProt P14867+P18507+P28472); test: Two-electrode voltage clamp, recombinant α1β3γ2L GABAARs in Xenopus oocytes; assay type: cell-based
T5 construct: expressed in transfected cells; host or cells: Xenopus laevis oocytes injected with mRNA (10:1:10)
Experimental: as §1
(§7) Two-electrode voltage clamp recordings were performed on oocytes 2–5 days post-injection at room temperature (20–25°C) using a GeneClamp 500B amplifier (ADInstruments, Sydney, NSW, Australia) or a Warner OC-725C Oocyte Clamp (Warner Instrument Corp, Hamden, CT, USA). […]
as §5

α4β2δ GABAARs = biological target: T6, α4β2δ GABAARs (Homo sapiens, UniProt O14764+P47870+P48169); test: Two-electrode voltage clamp, recombinant α4β2δ GABAARs in Xenopus oocytes; assay type: cell-based; settings: for nH ± SEM: Hill slope of GABA curve, α4β2δ
T6 construct: expressed in transfected cells; host or cells: Xenopus laevis oocytes injected with mRNA (5:1:5)
Experimental: as §1, §2, §3, §4, §5

[1] = system: α1β2, β2γ2L, αxβ2γ2L (x = 1, 2, 3 or 5), α1βxγ2L (x = 1, 2 or 3) and α4β2δ GABAARs; test: Kavain potentiation compared across GABAAR subtypes (two-electrode voltage clamp); assay type: cell-based, human; settings: 300 μM kavain, GABA EC3-7 (EC30 at α4β2δ), Tukey's test
Experimental: as §1, §7
Alternatively, the modulatory effect was expressed as the fold of potentiation, as shown in Eq 3. […]

α2β2γ2L GABAARs = α2β2γ2L GABAARs (Homo sapiens, UniProt P18507+P47869+P47870); settings: Hill slope of GABA curve
Experimental: as §1, §7, §5

α5β2γ2L GABAARs = biological target: T7, α5β2γ2L GABAARs (Homo sapiens, UniProt P18507+P31644+P47870); test: Two-electrode voltage clamp, recombinant α5β2γ2L GABAARs in Xenopus oocytes; assay type: cell-based; settings: Hill slope of GABA curve
T7 construct: expressed in transfected cells; host or cells: Xenopus laevis oocytes injected with mRNA (1:1:3)
Experimental: as §1, §7, §5

α3β2γ2L GABAARs = biological target: T8, α3β2γ2L GABAARs (Homo sapiens, UniProt P18507+P34903+P47870); test: Two-electrode voltage clamp, recombinant α3β2γ2L GABAARs in Xenopus oocytes; assay type: cell-based; settings: Hill slope of GABA curve
T8 construct: expressed in transfected cells; host or cells: Xenopus laevis oocytes injected with mRNA (1:1:3)
Experimental: as §1, §7, §5

β2γ2L GABAARs = biological target: T9, β2γ2L GABAARs (Homo sapiens, UniProt P18507+P47870); test: Two-electrode voltage clamp, recombinant β2γ2L GABAARs in Xenopus oocytes; assay type: cell-based; settings: Hill slope of GABA curve
T9 construct: expressed in transfected cells; host or cells: Xenopus laevis oocytes injected with mRNA
Experimental: as §1, §7, §5

α1β1γ2L GABAARs = biological target: T10, α1β1γ2L GABAARs (Homo sapiens, UniProt P14867+P18505+P18507); test: Two-electrode voltage clamp, recombinant α1β1γ2L GABAARs in Xenopus oocytes; assay type: cell-based; settings: Hill slope of GABA curve
T10 construct: expressed in transfected cells; host or cells: Xenopus laevis oocytes injected with mRNA (10:1:10)
Experimental: as §1, §7, §5

## CN1C(=O)CN=C(c2ccccc2)c2cc(Cl)ccc21 [diazepam]
α1β2γ2L GABAARs
  enhancement of GABA current, normalised to 10 μM GABA responses: 260 ± 4.2%
  flumazenil sensitivity of diazepam enhancement: flumazenil-sensitive

## CC(C)c1cccc(C(C)C)c1O [propofol]
α1β2γ2L GABAARs
  elicited current, % of the maximal propofol responses: 91 ± 1.5%
  enhancement of GABA EC3 responses, % of the maximal GABA responses: 45 ± 3.5% and 50 ± 4.8%
α1β3N265Mγ2L GABAARs
  propofol activity at the point-mutated receptors: Pronounced attenuation
α1β2M286Wγ2L GABAARs; 10 μM propofol, p < 0.001
  receptor modulation in the presence of GABA EC3 (1 μM), mutant vs wild-type: significantly diminished
α1β2M286Wγ2L GABAARs; 100 μM propofol, p > 0.05
  direct activation, mutant vs wild-type: unaffected
α1M236Wβ2γ2L GABAARs; 10 μM propofol, p < 0.01, n = 5
  modulatory effect on GABA EC3 (1 μM) responses, mutant vs wild-type: significantly attenuated
α1M236Wβ2γ2L GABAARs; 100 μM propofol
  agonist effect, mutant vs wild-type: not significantly different from wild-type receptors

## CCOC(=O)c1cncn1[C@H](C)c1ccccc1 [etomidate, Etomidate hydrochloride (HCl)]
α1β2γ2L GABAARs
  enhancement of GABA EC3 responses, % of maximal GABA responses: 53 ± 2.6% and 45 ± 3.1%
α1β3N265Mγ2L GABAARs; data not shown
  modulation (3 μM) and activation (30 μM) of the point-mutated receptors: did not modulate (at 3 μM) nor activate (at 30 μM)
α1β2M286Wγ2L GABAARs; data not shown
  etomidate sensitivity (modulatory and agonist effects): abolished
α1M236Wβ2γ2L GABAARs; 3 μM etomidate, p < 0.0001, n = 5
  modulatory effect on GABA EC3 (1 μM) responses, mutant vs wild-type: significantly attenuated
α1M236Wβ2γ2L GABAARs; 30 μM etomidate
  agonist effect, mutant vs wild-type: not significantly different from wild-type receptors

## DL-kavain
α1β2γ2L GABAARs; 10 μM GABA + 300 μM kavain + 10 μM flumazenil
  GABA-enhancing action of kavain in the presence of flumazenil: unaffected in the presence of flumazenil
α1β2γ2L GABAARs; 10 μM GABA + 300 μM kavain, n = 5
  enhancement of GABA current, normalised to 10 μM GABA responses: 260 ± 11%
α1β2γ2L GABAARs; 300 μM kavain alone, n = 5
  intrinsic agonist activity, currents relative to the 10 mM GABA responses: < 1%
α1β2γ2L GABAARs; 300 μM kavain, GABA EC3 (10 μM), n = 6
  enhancement of GABA-elicited responses: 170 ± 23%
α1β2γ2L GABAARs; 300 μM kavain, GABA concentration-response curve
  enhancement depending on GABA concentration: modest enhancement at GABA concentrations below EC45
α1β2γ2L GABAARs; 300 μM kavain, wild-type, n = 4
  current elicited by kavain alone, % of the GABA EC3 responses: 15 ± 3.6%
α1β2γ2L GABAARs; GABA EC3 + 300 μM kavain, n = 4, kavain-elicited current not deducted
  potentiation by co-application, % of GABA EC3 responses: 250 ± 7.8%
α1β3N265Mγ2L GABAARs; 300 μM kavain
  current elicited by kavain alone, % of GABA EC3 responses: 3.3 ± 1.0%
α1β3N265Mγ2L GABAARs; GABA EC3 + 300 μM kavain, p < 0.001 vs α1β3γ2L
  kavain modulation of GABA EC3 responses: 110 ± 14%
α1β3γ2L GABAARs; GABA EC3 + 300 μM kavain
  kavain modulation of GABA EC3 responses: 260 ± 18%
α1β2M286Wγ2L GABAARs; 300 μM kavain, p < 0.0001 vs wild-type
  current elicited by kavain alone, % of the GABA EC3 responses: 96 ± 5.8%
α1β2M286Wγ2L GABAARs; GABA EC3 + 300 μM kavain, p > 0.05 vs α1β2γ2L
  modulatory effect on GABA EC3-elicited responses, % of GABA EC3: 270 ± 8.7%
α4β2δ GABAARs; 300 μM kavain, p < 0.0001
  increase of the maximal response evoked by GABA: two fold
[1]
  subtype selectivity of potentiation: no significant subtype selectivity
α1M236Wβ2γ2L GABAARs; 300 μM kavain, n = 6
  current elicited by kavain alone, % of the GABA EC3 responses: approximately 63 ± 5.2%
α1M236Wβ2γ2L GABAARs; GABA EC3 + 300 μM kavain, n = 6, kavain-elicited current not deducted
  potentiation by co-application, % of GABA EC3 responses: 220 ± 11%

## CCOC(=O)c1ncn2c1CN(C)C(=O)c1cc(F)ccc1-2 [flumazenil]
α1β2γ2L GABAARs; 10 μM GABA + 10 μM flumazenil
  effect of flumazenil alone on GABA responses: did not alter GABA responses

## NCCCC(=O)O [GABA, γ-Aminobutyric acid]
α2β2γ2L GABAARs
  nH ± SEM: 1.4 ± 0.041
α5β2γ2L GABAARs
  nH ± SEM: 1.0 ± 0.078
α1β2γ2L GABAARs
  nH ± SEM: 0.99 ± 0.062
α1β2γ2L GABAARs; + 300 μM kavain
  nH ± SEM: 0.75 ± 0.026
α3β2γ2L GABAARs
  nH ± SEM: 1.2 ± 0.054
α1β3N265Mγ2L GABAARs; Hill slope of GABA curve, α1β3N265Mγ2L
  nH ± SEM: 1.4 ± 0.083
α1β3γ2L GABAARs; Hill slope of GABA curve, α1β3γ2L
  nH ± SEM: 1.2 ± 0.070
α1β2M286Wγ2L GABAARs; Hill slope of GABA curve, α1β2M286Wγ2L
  nH ± SEM: 1.1 ± 0.036
β2γ2L GABAARs
  nH ± SEM: 0.63 ± 0.034
α4β2δ GABAARs
  nH ± SEM: 0.70 ± 0.095
α4β2δ GABAARs; + 300 μM kavain
  nH ± SEM: 0.59 ± 0.11
α1M236Wβ2γ2L GABAARs; Hill slope of GABA curve, mutant printed as α1M286Wβ2γ2L in table
  nH ± SEM: 0.80 ± 0.053
α1β1γ2L GABAARs
  nH ± SEM: 1.1 ± 0.059
